In general, IC50 refers to the point on the concentration scale where inhibition reaches its midpoint. The low end stands for higher potency, the high end for lower potency.

IC50 data for 19 compounds are collected here from patent US12509447B2, “Small molecule compound” (Technoderma Medicines Pte Ltd, priority 2019, dated 2025).

Holding throughout (type): biochemical
One test has as its target Tyk2 (Homo sapiens, UniProt P29597). The test is described as follows: Inhibition of JAK kinase activity, EZ Reader microfluidic phosphorylation of peptide substrate: Tyk2. As to conditions: Tyk2 kinase 1 nM; highest final concentration 10 μM, 1:3 serial dilution, 8 points, duplicates. In short, it runs like this:
(§1)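 Microfluidic mobility-shift assay reading fluorescent peptide substrate and product; kinases at 20 nM (JAK1) or 1 nM (JAK2, JAK3, Tyk2) in pH 7.4 HEPES with 10 mM MgCl2, run at room temperature to 20-30% conversion, then stopped with EDTA. Compounds tested from 10 μM top, 1:3 over 8 points in duplicate; IC50 fitted from % conversion.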

In another test the target is JAK1 (Homo sapiens, UniProt P23458). The test is described as follows: Inhibition of JAK kinase activity, EZ Reader microfluidic phosphorylation of peptide substrate: JAK1. To be noted: JAK1 kinase 20 nM; highest final concentration 10 μM, 1:3 serial dilution, 8 points, duplicates. In short, it runs like this:
as §1

A further test addresses JAK2 (Homo sapiens, UniProt O60674). The test can be described thus: Inhibition of JAK kinase activity, EZ Reader microfluidic phosphorylation of peptide substrate: JAK2. As to conditions: JAK2 kinase 1 nM; highest final concentration 10 μM, 1:3 serial dilution, 8 points, duplicates. The method in brief:
as §1

A further test addresses T1, JAK3 (Homo sapiens, UniProt P52333).
T1 sequence (P52333 1-1124): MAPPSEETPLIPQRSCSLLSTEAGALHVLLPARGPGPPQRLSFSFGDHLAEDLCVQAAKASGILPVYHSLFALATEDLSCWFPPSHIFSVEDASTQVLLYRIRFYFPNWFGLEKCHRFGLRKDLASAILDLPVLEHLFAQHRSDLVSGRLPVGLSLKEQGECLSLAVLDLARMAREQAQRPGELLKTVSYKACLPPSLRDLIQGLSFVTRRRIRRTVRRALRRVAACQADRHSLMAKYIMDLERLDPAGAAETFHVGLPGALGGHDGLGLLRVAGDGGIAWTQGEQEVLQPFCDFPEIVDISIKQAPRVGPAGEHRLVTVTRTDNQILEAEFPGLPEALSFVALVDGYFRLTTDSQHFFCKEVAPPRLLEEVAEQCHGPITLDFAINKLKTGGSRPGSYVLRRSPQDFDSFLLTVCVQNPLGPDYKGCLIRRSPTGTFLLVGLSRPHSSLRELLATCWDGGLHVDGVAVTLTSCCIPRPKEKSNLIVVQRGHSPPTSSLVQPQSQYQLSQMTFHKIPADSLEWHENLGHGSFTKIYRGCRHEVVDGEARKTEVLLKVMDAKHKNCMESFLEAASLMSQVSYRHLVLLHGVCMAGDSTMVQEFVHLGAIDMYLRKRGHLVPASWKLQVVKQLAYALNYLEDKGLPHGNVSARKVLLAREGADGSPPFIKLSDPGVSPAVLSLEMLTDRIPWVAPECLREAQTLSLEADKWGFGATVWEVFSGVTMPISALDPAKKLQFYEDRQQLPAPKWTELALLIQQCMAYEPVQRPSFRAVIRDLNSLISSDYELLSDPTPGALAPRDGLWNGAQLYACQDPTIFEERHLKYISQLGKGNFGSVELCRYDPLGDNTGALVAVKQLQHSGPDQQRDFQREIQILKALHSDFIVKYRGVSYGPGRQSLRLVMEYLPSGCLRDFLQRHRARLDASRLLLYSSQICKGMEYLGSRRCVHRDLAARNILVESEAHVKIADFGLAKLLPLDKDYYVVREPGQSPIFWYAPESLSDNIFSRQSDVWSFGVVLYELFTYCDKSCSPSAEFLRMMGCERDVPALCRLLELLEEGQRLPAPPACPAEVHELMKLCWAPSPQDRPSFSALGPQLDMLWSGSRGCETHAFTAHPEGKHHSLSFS
The test is described as follows: Inhibition of JAK kinase activity, EZ Reader microfluidic phosphorylation of peptide substrate: JAK3. To be noted: JAK3 kinase 1 nM; highest final concentration 10 μM, 1:3 serial dilution, 8 points, duplicates. In short, it runs like this:
as §1

Where only a bound is given, the exact number is not on record here.

Chain of JAK2 (O60674 whole entry): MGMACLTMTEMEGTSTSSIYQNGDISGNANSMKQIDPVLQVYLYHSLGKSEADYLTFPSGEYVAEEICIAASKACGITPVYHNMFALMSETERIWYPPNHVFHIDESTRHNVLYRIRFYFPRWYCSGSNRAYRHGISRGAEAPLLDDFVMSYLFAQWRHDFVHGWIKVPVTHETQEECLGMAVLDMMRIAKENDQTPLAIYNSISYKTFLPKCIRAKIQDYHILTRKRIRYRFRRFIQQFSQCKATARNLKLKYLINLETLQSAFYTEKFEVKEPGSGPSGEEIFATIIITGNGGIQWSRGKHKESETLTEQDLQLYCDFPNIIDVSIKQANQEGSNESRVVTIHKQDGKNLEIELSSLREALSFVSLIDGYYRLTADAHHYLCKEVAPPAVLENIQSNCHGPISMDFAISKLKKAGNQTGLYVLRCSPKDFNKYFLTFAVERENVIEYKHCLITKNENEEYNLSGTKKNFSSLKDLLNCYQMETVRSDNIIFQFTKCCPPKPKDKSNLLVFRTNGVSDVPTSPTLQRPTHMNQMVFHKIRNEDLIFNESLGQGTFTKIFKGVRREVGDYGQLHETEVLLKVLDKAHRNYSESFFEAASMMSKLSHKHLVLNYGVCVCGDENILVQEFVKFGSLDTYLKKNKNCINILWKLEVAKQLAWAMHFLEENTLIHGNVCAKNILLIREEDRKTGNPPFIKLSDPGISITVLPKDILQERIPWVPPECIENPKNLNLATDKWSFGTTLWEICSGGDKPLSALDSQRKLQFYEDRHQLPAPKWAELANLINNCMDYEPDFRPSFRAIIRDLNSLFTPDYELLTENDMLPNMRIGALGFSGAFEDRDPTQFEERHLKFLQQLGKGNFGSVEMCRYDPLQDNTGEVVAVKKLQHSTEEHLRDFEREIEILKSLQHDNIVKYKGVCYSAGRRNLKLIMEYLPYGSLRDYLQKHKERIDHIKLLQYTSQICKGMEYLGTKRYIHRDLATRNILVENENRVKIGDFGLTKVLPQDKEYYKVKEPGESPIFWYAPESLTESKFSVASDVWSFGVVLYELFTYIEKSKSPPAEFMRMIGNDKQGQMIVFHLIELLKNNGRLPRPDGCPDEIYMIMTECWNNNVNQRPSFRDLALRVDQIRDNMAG
Chain of Tyk2 (P29597 whole entry): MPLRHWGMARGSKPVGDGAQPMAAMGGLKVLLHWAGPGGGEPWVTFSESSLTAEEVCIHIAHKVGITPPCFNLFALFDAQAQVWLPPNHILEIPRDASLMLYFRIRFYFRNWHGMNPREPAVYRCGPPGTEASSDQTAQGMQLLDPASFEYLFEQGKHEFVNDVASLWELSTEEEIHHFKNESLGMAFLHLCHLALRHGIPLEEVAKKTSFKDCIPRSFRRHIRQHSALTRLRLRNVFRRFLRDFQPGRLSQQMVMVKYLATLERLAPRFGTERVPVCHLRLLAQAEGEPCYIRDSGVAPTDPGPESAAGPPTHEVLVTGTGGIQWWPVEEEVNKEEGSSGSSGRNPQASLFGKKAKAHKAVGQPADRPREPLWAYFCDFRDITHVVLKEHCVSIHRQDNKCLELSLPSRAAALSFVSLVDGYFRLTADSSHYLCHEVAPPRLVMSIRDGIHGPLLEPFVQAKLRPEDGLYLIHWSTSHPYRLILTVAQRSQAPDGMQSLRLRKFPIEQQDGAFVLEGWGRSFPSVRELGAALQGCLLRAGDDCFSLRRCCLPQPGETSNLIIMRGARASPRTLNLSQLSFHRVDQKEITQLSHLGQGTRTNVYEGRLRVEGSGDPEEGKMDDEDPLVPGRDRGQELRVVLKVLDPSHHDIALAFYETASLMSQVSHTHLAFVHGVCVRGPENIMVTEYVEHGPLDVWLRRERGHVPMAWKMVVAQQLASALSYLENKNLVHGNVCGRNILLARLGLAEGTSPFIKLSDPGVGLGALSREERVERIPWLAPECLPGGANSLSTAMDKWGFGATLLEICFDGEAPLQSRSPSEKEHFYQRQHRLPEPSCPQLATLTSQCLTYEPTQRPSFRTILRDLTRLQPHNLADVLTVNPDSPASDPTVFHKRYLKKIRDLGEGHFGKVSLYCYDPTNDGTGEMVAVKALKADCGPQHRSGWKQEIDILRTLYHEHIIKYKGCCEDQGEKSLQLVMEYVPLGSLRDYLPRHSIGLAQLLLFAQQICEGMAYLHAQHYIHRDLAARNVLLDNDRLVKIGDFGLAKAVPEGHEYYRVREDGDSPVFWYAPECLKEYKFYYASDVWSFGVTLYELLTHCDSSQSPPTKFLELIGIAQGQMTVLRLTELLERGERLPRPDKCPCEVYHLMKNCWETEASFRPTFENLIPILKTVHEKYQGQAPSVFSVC
Chain of JAK1 (P23458 whole entry): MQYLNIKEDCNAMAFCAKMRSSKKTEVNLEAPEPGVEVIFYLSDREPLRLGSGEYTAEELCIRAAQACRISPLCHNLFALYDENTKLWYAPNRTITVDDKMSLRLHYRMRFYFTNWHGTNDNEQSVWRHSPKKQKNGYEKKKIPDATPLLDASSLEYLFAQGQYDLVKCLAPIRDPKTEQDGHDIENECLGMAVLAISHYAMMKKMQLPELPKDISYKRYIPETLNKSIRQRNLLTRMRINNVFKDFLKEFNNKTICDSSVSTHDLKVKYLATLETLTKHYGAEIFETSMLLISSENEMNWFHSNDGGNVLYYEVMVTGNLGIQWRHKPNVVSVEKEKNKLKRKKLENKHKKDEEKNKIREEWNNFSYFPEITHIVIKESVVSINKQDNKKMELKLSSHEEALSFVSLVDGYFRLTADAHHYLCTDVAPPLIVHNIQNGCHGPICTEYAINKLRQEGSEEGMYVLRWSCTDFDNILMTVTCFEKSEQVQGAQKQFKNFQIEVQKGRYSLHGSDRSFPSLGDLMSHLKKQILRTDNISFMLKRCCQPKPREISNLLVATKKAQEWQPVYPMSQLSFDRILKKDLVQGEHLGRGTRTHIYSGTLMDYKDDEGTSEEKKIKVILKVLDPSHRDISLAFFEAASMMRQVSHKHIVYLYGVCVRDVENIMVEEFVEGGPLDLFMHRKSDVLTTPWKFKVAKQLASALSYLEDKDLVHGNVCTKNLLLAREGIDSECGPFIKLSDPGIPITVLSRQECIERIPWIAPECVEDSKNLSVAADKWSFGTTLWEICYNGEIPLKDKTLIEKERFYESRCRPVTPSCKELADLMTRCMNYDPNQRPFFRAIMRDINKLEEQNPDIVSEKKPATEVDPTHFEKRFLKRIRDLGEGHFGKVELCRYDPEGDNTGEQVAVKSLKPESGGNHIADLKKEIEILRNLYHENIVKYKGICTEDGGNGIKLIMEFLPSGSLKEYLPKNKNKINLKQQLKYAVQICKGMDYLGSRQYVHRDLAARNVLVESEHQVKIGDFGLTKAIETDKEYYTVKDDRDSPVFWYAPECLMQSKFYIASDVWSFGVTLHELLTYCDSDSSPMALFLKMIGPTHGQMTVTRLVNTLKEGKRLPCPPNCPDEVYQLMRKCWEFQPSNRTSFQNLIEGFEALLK

Consider `CCCS(=O)(=O)N1CC(n2cc(-c3ccnc(Nc4cnn(C)c4)c3)cn2)C1` [TDM-180643, N-(1-methyl-1H-pyrazol-4-yl)-4-(1-(1-(propylsulfonyl)azetidin-3-yl)-1H-pyrazol-4-yl)pyridine-2-amine], for which the 50% inhibitory concentration (IC50) against Tyk2, on JAK1, against JAK2 and against JAK3 was no less than 10 µM throughout.
For `CCCS(=O)(=O)N1CCC(n2cc(-c3ccnc(Nc4cnn(C)c4)n3)cn2)C1` (stereo not shown) [TDM-180648, N-(1-methyl-1H-pyrazol-4-yl)-4-(1-(1-(propylsulfonyl)pyrrolidine-3-yl)-1H-pyrazol-4-yl)pyrimidin-2-amine], the IC50 against Tyk2, against JAK1, at JAK2 and against JAK3 was 1 to 10 µM in each case.
On to `CCS(=O)(=O)N1CC(n2cc(-c3ccnc(Nc4cnn(C)c4)c3)cn2)C1` [TDM-180642, 4-(1-(1-(ethylsulfonyl)azetidin-3-yl)-1H-pyrazol-4-yl)-N-(1-methyl-1H-pyrazol-4-yl) pyridine-2-amine], for which the IC50 against Tyk2, against JAK1, against JAK2 and at JAK3 was no less than 10 µM in each case.
Turning to `Cn1cc(Nc2nccc(-c3cnn(C4(CC#N)CN(C(=O)CC(F)(F)F)C4)c3)n2)cn1` [TDM-180752, 2-(3-(4-(2-((1-methyl-1H-pyrazol-4-yl)amino)pyrimidin-4-yl)-1H-pyrazol-1-yl)-1-(3,3,3-trifluoropropionyl)azetidin-3-yl)acetonitrile], the IC50 on Tyk2 was 0.1 to 1 µM; against JAK1, 0.1 to 1 µM; at JAK2, 0.1 to 1 µM; against JAK3 it was 1 to 10 µM.
Regarding `CCC(=O)N1CCC(n2cc(-c3ccnc(Nc4cnn(C)c4)n3)cn2)C1` (stereo not shown) [TDM-180649, 1-(3-(4-(2-((1-methyl-1H-pyrazol-4-yl)amino)pyrimidin-4-yl)-1H-pyrazol-1-yl)pyrrolidin-1-yl)propan-1-one], the concentration for half-maximal inhibition (IC50) at Tyk2, on JAK1, against JAK2 and at JAK3 was no less than 10 µM in each case.
For `Cn1cc(Nc2nccc(-c3cnn(C4CCN(C(=O)C5CC5(F)F)C4)c3)n2)cn1` (stereo not shown) [TDM-180654, (2,2-difluorocyclopropyl)(3-(4-(2-((1-methyl-1H-pyrazol-4-yl)amino)pyrimidin-4-yl)-1H-pyrazol-1-yl)pyrrolidin-1-yl)ketone], the IC50 at Tyk2 was 1 to 10 µM; on JAK1, no less than 10 µM; on JAK2 it was 1 to 10 µM; against JAK3, no less than 10 µM.
In the case of `Cn1cc(Nc2nccc(-c3ccn(C4(CC#N)CN(C(=O)C5CC5)C4)c3)n2)cn1` [TDM-180772, 2-(1-(cyclopropanecarbonyl)-3-(3-(2-((1-methyl-1H-pyrazol-4-yl)amino)pyrimidin-4-yl)-1H-pyrrol-1-yl)azetidinpyridin-3-yl)acetonitrile], the IC50 on Tyk2 is 0.1 to 1 µM; at JAK1, 0.1 to 1 µM; at JAK2 it was 0.1 to 1 µM; against JAK3, no less than 10 µM.
With `CCCC(=O)N1CCC(n2cc(-c3ccnc(Nc4cnn(C)c4)n3)cn2)C1` (stereo not shown) [TDM-180650, 1-(3-(4-(2-((1-methyl-1H-pyrazol-4-yl)amino)pyrimidin-4-y1)-1H-pyrazol-1-yl)pyrrolidin-1-yl)butan-1-one], the IC50 at Tyk2, against JAK1, against JAK2 and against JAK3 was no less than 10 µM throughout.
As to `CCC(=O)N1CC(n2cc(-c3ccnc(Nc4cnn(C)c4)c3)cn2)C1` [TDM-180639, 1-(3-(4-(2-((1-methyl-1H-pyrazol-4-yl)amino)pyridin-4-y1)-1H-pyrazol-1-yl)azetidin-1-yl)propan-1-one], the half-inhibitory concentration (IC50) against Tyk2, against JAK1, against JAK2 and against JAK3 was no less than 10 µM in each case.
For `Cn1cc(Nc2cc(-c3cnn(C4CN(C(=O)C5CC5(F)F)C4)c3)ccn2)cn1` (stereo not shown) [TDM-180638], the 50% inhibitory concentration (IC50) against Tyk2, against JAK1, at JAK2 and on JAK3 was no less than 10 µM throughout.
As for `CCS(=O)(=O)N1CC(CC#N)(n2cc(-c3ccnc(Nc4cnn(C)c4)n3)cn2)C1` [TDM-180728, 2-(1-(ethylsulfonyl)-3-(4-(2-((1-methyl-1H-pyrazol-4-yl)amino)pyrimidin-4-yl)-1H-pyrazol-1-yl)azetidinpyridin-3-yl)acetonitrile], the IC50 against Tyk2 was 0.1 to 1 µM; on JAK1, 0.1 to 1 µM; at JAK2, less than 0.1 µM; against JAK3 it was 1 to 10 µM.
Take `Cn1cc(Nc2nccc(-c3cnn(C4CN(C(=O)C5CC5(F)F)C4)c3)n2)cn1` (stereo not shown) [TDM-180668, (2,2-difluorocyclopropyl)(3-(4-(2-((1-methyl-1H-pyrazol-4-yl)amino)pyrimidin-4-yl)-1H-pyrazol-1-yl)azetidin-1-yl)ketone]: the IC50 at Tyk2, on JAK1, against JAK2 and against JAK3 was no less than 10 µM each time.
In the case of `CCCC(=O)N1CC(n2cc(-c3ccnc(Nc4cnn(C)c4)n3)cn2)C1` [TDM-180670], the half-inhibitory concentration (IC50) at Tyk2, at JAK1, against JAK2 and at JAK3 was no less than 10 µM each time.
As for `Cn1cc(Nc2nccc(-c3cnn(C4(CC#N)CN(C(=O)CC#N)C4)c3)n2)cn1` [TDM-180727, 3-(3-(cyanomethyl)-3-(4-(2-((1-methyl-1H-pyrazol-4-yl)amino)pyrimidin-4-yl)-1H-pyrazol-1-yl)azetidinpiperazin-1-yl)-3-oxypropionitrile], the IC50 on Tyk2 is 0.1 to 1 µM; against JAK1 it was 0.1 to 1 µM; at JAK2, 1 to 10 µM; at JAK3 it was no less than 10 µM.
`Cn1cc(Nc2nccc(-c3cnn(C4(CC#N)CN(S(=O)(=O)C5CC5)C4)c3)n2)cn1` [TDM-180766, 2-(1-(cyclopropylsulfonyl)-3-(4-(2-((1-methyl-1H-pyrazol-4-yl)amino)pyrimidin-4-yl)-1H-pyrazol-1-yl)azetidinpyridin-3-yl)acetonitrile]: the 50% inhibitory concentration (IC50) on Tyk2 is less than 0.1 µM; against JAK1, 0.1 to 1 µM; on JAK2, less than 0.1 µM; on JAK3 it was 1 to 10 µM.
Take `CCS(=O)(=O)N1CCC(n2cc(-c3ccnc(Nc4cnn(C)c4)n3)cn2)CC1` [TDM-180674, 4-(1-(1-(ethylsulfonyl)piperidin-4-yl)-1H-pyrazol-4-yl)-N-(1-methyl-1H-pyrazol-4-yl)pyrimidin-2-amine]: the half-maximal inhibitory concentration (IC50) on Tyk2 is 1 to 10 µM; on JAK1 it was no less than 10 µM; against JAK2, 1 to 10 µM; against JAK3 it was no less than 10 µM.
As for `CN1CCN(c2ccc(-c3ccnc(Nc4cnn(C)c4)n3)cc2)CC1` [TDM-180828, N-(1-methyl-1H-pyrazol-4-yl)-4-(4-(4-methylpiperazin-1-yl)phenyl)pyrimidin-2-amine], the IC50 at Tyk2 was 1 to 10 µM; on JAK1, 1 to 10 µM; at JAK2, 1 to 10 µM; at JAK3, no less than 10 µM.
Regarding `Cn1cc(Nc2nccc(-c3cnn(C4CCN(C(=O)CC#N)CC4)c3)n2)cn1` [TDM-180680, 3-(4-(4-(2-((1-methyl-1H-pyrazol-4-yl)amino)pyrimidin-4-yl)-1H-pyrazol-1-yl)piperidin-1-yl)3-oxopropanenitrile], the IC50 on Tyk2, against JAK1, against JAK2 and on JAK3 was no less than 10 µM each time.
Take `Cn1cc(Nc2nccc(-c3cnn(C4CN(C(=O)C5CC5)C4)c3)n2)cn1` [TDM-180667, cyclopropyl(3-(4-(2-((1-methyl-1H-pyrazol-4-yl)amino)pyrimidin-4-yl)-1H-pyrazol-1-yl)azetidin-1-yl)ketone]: the concentration for half-maximal inhibition (IC50) on Tyk2, at JAK1, at JAK2 and at JAK3 was no less than 10 µM in each case.
